Structures can show the parent of a compound that is named as a salt.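 Assay format: 96-well plates, 48-hour exposure. GI50 marks 50% less growth.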 The source made the active and inactive calls. Cut-off read from the data, not from the text of the source: active = GI50 up to about 1.1 µM and inactive = higher.
Experiments:
Experiment in all cases: DTP human tumour cell line panel, 48 h
HCT-116 = tested on: HCT-116
NCI-H460 = tested on: NCI-H460
TK-10 = tested on: TK-10
RXF 393 = tested on: RXF 393
EKVX = tested on: EKVX
IGROV-1 = tested on: IGROV-1
LOX IMVI = tested on: LOX IMVI
K562 = tested on: K562
786-0 = tested on: 786-0
BT-549 = tested on: BT-549
OVCAR-5 = tested on: OVCAR-5
M14 = tested on: M14
T47D = tested on: T47D
SR = tested on: SR
UACC-62 = tested on: UACC-62
SF-295 = tested on: SF-295
MDA-MB-435 = tested on: MDA-MB-435
MDA-N = tested on: MDA-N
HOP-92 = tested on: HOP-92
PC-3 = tested on: PC-3

| Structure (SMILES) | GI50 (HCT-116) | GI50 (NCI-H460) | GI50 (TK-10) | GI50 (RXF 393) | GI50 (EKVX) | GI50 (IGROV-1) | GI50 (LOX IMVI) | GI50 (K562) | GI50 (786-0) | GI50 (BT-549) | GI50 (OVCAR-5) | GI50 (M14) | GI50 (T47D) | GI50 (SR) | GI50 (UACC-62) | GI50 (SF-295) | GI50 (MDA-MB-435) | GI50 (MDA-N) | GI50 (HOP-92) | GI50 (PC-3) |
| --- | --- | --- | --- | --- | --- | --- | --- | --- | --- | --- | --- | --- | --- | --- | --- | --- | --- | --- | --- | --- |
| O=C(O)[C@@H]1C2CC([C@@H]1C(=O)O)[C@H](N1C(=O)CCC1=O)[C@@H]2Br (stereo not given in full) | > 100 µM (inactive) | > 100 µM (inactive) | > 100 µM (inactive) | > 100 µM (inactive) | > 100 µM (inactive) | > 100 µM (inactive) | > 100 µM (inactive) | > 100 µM (inactive) | > 100 µM (inactive) | > 100 µM (inactive) | > 100 µM (inactive) | > 100 µM (inactive) | > 100 µM (inactive) | > 100 µM (inactive) | > 100 µM (inactive) | > 100 µM (inactive) | > 100 µM (inactive) | > 100 µM (inactive) | > 100 µM (inactive) | > 100 µM (inactive) |
| c1ccc(-c2cc(-c3cccs3)c(-c3cccs3)o2)cc1 | 50.7 µM (inactive) | > 100 µM (inactive) | > 100 µM (inactive) | > 100 µM (inactive) | > 100 µM (inactive) | > 100 µM (inactive) | > 100 µM (inactive) | > 100 µM (inactive) | > 100 µM (inactive) | > 100 µM (inactive) | > 100 µM (inactive) | > 100 µM (inactive) | > 100 µM (inactive) | > 100 µM (inactive) | > 100 µM (inactive) | > 100 µM (inactive) | > 100 µM (inactive) | > 100 µM (inactive) | > 100 µM (inactive) | > 100 µM (inactive) |
| CC(C)=CCCC(C)C1=C(O)C(=O)C(C)=CC1=O (stereo not given) | 4.71 µM (inactive) | 27.7 µM (inactive) | 7.73 µM (inactive) | 4.74 µM (inactive) | 5.94 µM (inactive) | 15.6 µM (inactive) | 3.66 µM (inactive) | 0.336 µM (active) | 5.86 µM (inactive) | 14.6 µM (inactive) | 16.4 µM (inactive) | 17.2 µM (inactive) | 2.07 µM (inactive) | 1.29 µM (inactive) | 13.4 µM (inactive) | 34 µM (inactive) | 16.7 µM (inactive) | 5.78 µM (inactive) | 1.73 µM (inactive) | 17.4 µM (inactive) |
| Cc1cc(C)nc(NS(=O)(=O)c2ccc(NNc3c4ccccc4nc4c(C(=O)Nc5ccc(S(=O)(=O)Nc6ncccn6)cc5)cccc34)cc2)n1 | 17.4 µM (inactive) | 25.6 µM (inactive) | 50.9 µM (inactive) | 35.3 µM (inactive) | 19.5 µM (inactive) | 35 µM (inactive) | 20.7 µM (inactive) | 28.6 µM (inactive) | 39.3 µM (inactive) | 36.8 µM (inactive) | 16.4 µM (inactive) | 33.7 µM (inactive) | 26.1 µM (inactive) | 8.41 µM (inactive) | 25.2 µM (inactive) | 32.4 µM (inactive) | 21.5 µM (inactive) | 31.1 µM (inactive) | 27.3 µM (inactive) | 26.5 µM (inactive) |
| O=C1c2cccc3cccc(c23)C(=O)N1CCCNCCCCNCCCNCCCN1C(=O)c2cccc3cccc(c23)C1=O [BISNAPHTHALIMIDOPROPYL SPERMIDINE TRIHYDROBROMIDE] | 0.399 µM (active) | 0.323 µM (active) | 2.55 µM (inactive) | 0.473 µM (active) | 1.18 µM (inactive) | 0.472 µM (active) | 0.316 µM (active) | 0.557 µM (active) | 0.175 µM (active) | 1.64 µM (inactive) | 0.585 µM (active) | 1.52 µM (inactive) | 1.12 µM (inactive) | 0.0787 µM (active) | 0.458 µM (active) | 5.92 µM (inactive) | 0.74 µM (active) | 0.792 µM (active) | 0.935 µM (active) | 0.535 µM (active) |

— ChEMBL document CHEMBL1201862, “PubChem BioAssay data set” (2004)
